Laboratory results taken from patent US7919525B2, “Radiation protection by gamma-tocotrienol” (priority 2003, dated 2011).

Columns and labels:
Assay type in all cases: in vivo
CD2F1 male mice [1] = assay: 30-day survival of mice injected s.c. before lethal Cobalt-60 irradiation; conditions: for protective efficacy at higher radiation dose (in words): 11 Gy; for survival at 30 days after irradiation: s.c. injection 20-24 hours before irradiation
Description: CD2F1 male mice, 6-8 weeks old (approximately 25 g), procured from Jackson Labs were used throughout this study and were kept in rooms maintained at 21±0.5° C. Animals on arrival were maintained in quarantine for 10 days during which time serological testing was done for contamination by pathogens. All animals were provided with pellet diet and water ad lib.
A preparation of γ-tocotrienol in a final volume of 1 ml was made by mixing 0.11 ml of γ-tocotrienol with 0.85 ml PEG-400 (polyethylene glycol-400) and 0.05 ml of vital-E-placebo, a solubilizing agent (Schering-Plough). 1 ml of the preparation is sufficient for 8 mice. Final concentration of γ-tocotrienol is 100 mg/ml. Vehicle for injection into control animals was prepared exactly as for γ-tocotrienol except that 0.11 ml of olive oil was used instead of γ-tocotrienol.
(§1) Each animal was injected subcutaneously (at the nape of the neck) with 0.1 ml of either γ-tocotrienol or vehicle preparation. Injections were done 20-24 hours before irradiation.
(§2) Animals were placed in well-ventilated Lucite boxes (8 animals in a compartmentalized box) and irradiated in a Cobalt-60 facility at a radiation dose rate of 0.6 Gy/min for a total radiation dose of 10.5 and 11 Gy. The radiation dose used is a super lethal dose. The LD50/30 radiation dose for this strain of mice is 8.9 Gy with the vehicle alone. The radiation dose and dose rate were the same that had been used for α-tocopherol studies.
(§3) After radiation, mice were returned to their original cages with free access to food and water. Mice were weighed and monitored for survivors everyday for 30 days. Percentages of survivors at the end of 30 days are used as a measure of the efficacy of γ-tocotrienol in protecting from radiation damage.

CD2F1 male mice [2] = assay: Body weight of mice after irradiation at 10.5 Gy; conditions: 0.6 Gy per minute, s.c.
Description: as §1, §2, §3
Among the different treatment groups, the untreated mice (Untr, Irrad) and the mice treated with vehicle (Vehicle) started to loose weight again from around day 9 and died by day 15.

CD2F1 male mice [3] = assay: 30-day survival of mice given succinate ester orally before Cobalt-60 irradiation; conditions: 9.5 Gy Cobalt-60, 0.6 Gy/min; oral 0.1 ml of 200 unit/ml 20-24 hours before irradiation
Description: as §3
0.5 g TS (Sigma, 1210 units/g) was sonicated with 2.85 ml PEG-400 (polyethylene glycol-400) and 0.15 ml of vital-E-placebo, a solubilizing agent (Schering-Plough). The final concentration of TS in the prepared solution is 200 units/ml. At a dose of 800 unit/kg, 1 ml of the prepared solution as described above is sufficient for 8 mice. Vehicle for injection into control mice was prepared exactly as for TS except that 0.5 ml of olive oil was used instead of TS.
Each animal was orally administered 0.1 ml of TS solution (200 unit/ml) or vehicle by using feeding needles with a blobbed head. All administrations were done 20-24 hours before irradiation.
Animals were then placed in well-ventilated Lucite boxes (eight animals in a compartmentalized box) and irradiated in a Cobalt-60 facility at a radiation dose rate of 0.6 Gy/min for total radiation doses of 9, 9.5, and 10 Gy. The radiation doses 9.5 and 10 Gy used are lethal doses. […]
The efficacy of α-tocopherol succinate in protecting from radiation damage is monitored as described in Example 4. […]

[4] = experiment 1, 10.5 Gy Cobalt-60, 0.6 Gy/min, 8 mice
[5] = experiment 2, 10.5 Gy Cobalt-60, 0.6 Gy/min, 8 mice

Molecule | protection higher than with α-tocopherol (CD2F1 male mice [1]; 10.5 Gy, both experiments) [%] | survival after irradiation, both experiments together (CD2F1 male mice [1]; 10.5 Gy, given before irradiation) | protective efficacy at higher radiation dose (in words) (CD2F1 male mice [1]) | survival at 30 days after irradiation (CD2F1 male mice [1]; 11 Gy Cobalt-60, 0.6 Gy/min) | survival at 30 days after irradiation (CD2F1 male mice [1]; [4]) [%] | survival at 30 days after irradiation (CD2F1 male mice [1]; [5]) [%] | body weight course after irradiation (in words) (CD2F1 male mice [2]) | survival at 30 days after irradiation (CD2F1 male mice [3]) [%] | protection less than that of γ-tocotrienol (CD2F1 male mice [1]; 10.5 Gy) [%]
γ-tocotrienol | 25 | 75%-100 | better radioprotectant than α-tocopherol | 40% | 100 | 75 | continued to gain weight and did not die from the irradiation |  | 
Cc1c(C)c2c(c(C)c1OC(=O)CCC(=O)O)CC[C@@](C)(CCC[C@H](C)CCC[C@H](C)CCCC(C)C)O2 [α-tocopherol succinate] |  |  |  |  |  |  |  | 60 | 
Cc1c(C)c2c(c(C)c1O)CC[C@@](C)(CCC[C@H](C)CCC[C@H](C)CCCC(C)C)O2 [α-tocopherol, reference compound] |  |  | not effective | no survivors | 75 | 50 |  |  | 25
